From patent US20220356170A1, “SREBP INHIBITOR COMPRISING A THIOPHENE CENTRAL RING” (Capulus Therapeutics, LLC, priority 2019, published 2022)

Assays:
Assay in all cases: Cancer cell growth inhibition, Sulforhodamine B
Assay type in all cases: cell-based
[1] = test system: WSU-NHL; settings: Homo sapiens, 72 h, WSU-NHL (hematological)
Description: (§1) The ability of select compounds to inhibit cell growth in various cancer cell lines are evaluated. […] The cell lines shown in Table 5 have reduced growth by at least 50% at 10 uM or lower over 72 hr treatment in growth media. The cell lines shown in Table 6 have reduced growth by at least 50% with an IC50 greater than 10 uM.
(§2) Six 10-fold compound dilutions are prepared in DMSO (e.g. 10 mM, 1 mM, 100 uM, 10 uM, 1 uM, and 0.1 uM). Single data points are acquired for each concentration. The final concentration of DMSO is 0.1%. The duration of the treatment is 72 hr. Growth inhibition is measured using Sulforhodamine B in a protein staining assay. Activity of the agents is determined by evaluation the following parameters: IC50, GI50, IC10, TGI, LC50, IC90, and GI90 (where these values can be calculated).

[2] = test system: MINO; settings: Homo sapiens, 72 h, MINO (hematological)
Description: as §1, §2

[3] = test system: 22RV1; settings: Homo sapiens; 22RV1 (prostate), 72 hr; Responder Cell Lines
Description: as §1, §2

[4] = test system: SF268; settings: Homo sapiens, SF-268; SF268 (brain), 72 hr; Non-Responder Cell Lines with IC50 >10 uM or Not Determined
Description: as §1, §2

[5] = test system: T24; settings: Homo sapiens, T-24; T24 (bladder), 72 hr; Non-Responder Cell Lines with IC50 >10 uM or Not Determined
Description: as §1, §2

[6] = test system: JIMT1; settings: Homo sapiens, JIMT-1; JIMT1 (breast), 72 hr; Responder Cell Lines
Description: as §1, §2

[7] = test system: COLO205; settings: Homo sapiens, COLO 205; COLO205 (colon), 72 hr; Responder Cell Lines
Description: as §1, §2

[8] = test system: SKMEL28; settings: Homo sapiens, SK-MEL-28; SKMEL28 (skin), 72 hr; Non-Responder Cell Lines with IC50 >10 uM or Not Determined
Description: as §1, §2

[9] = test system: LOVO; settings: Homo sapiens; LOVO (colon), 72 hr; Responder Cell Lines
Description: as §1, §2

[10] = test system: SU-DHL-10; settings: Homo sapiens, SU-DHL10; SU-DHL-10 (hematological), 72 hr; Non-Responder Cell Lines with IC50 >10 uM or Not Determined
Description: as §1, §2

[11] = test system: A2780; settings: Homo sapiens; A2780 (ovary), 72 hr; Responder Cell Lines
Description: as §1, §2

[12] = test system: THP-1; settings: Homo sapiens, THP-1, 72 h, THP-1 (hematological)
Description: as §1, §2

[13] = test system: MIAPACA2; settings: Homo sapiens, MIA PaCa-2; MIAPACA2 (pancreas), 72 hr; Non-Responder Cell Lines with IC50 >10 uM or Not Determined
Description: as §1, §2

[14] = test system: HEPG2; settings: Homo sapiens; HEPG2 (liver), 72 hr; Responder Cell Lines
Description: as §1, §2

[15] = test system: SKNAS; settings: Homo sapiens, SK-N-AS; SKNAS (brain), 72 hr; Non-Responder Cell Lines with IC50 >10 uM or Not Determined
Description: as §1, §2

[16] = test system: A549; settings: Homo sapiens; A549 (lung), 72 hr; Responder Cell Lines
Description: as §1, §2

[17] = test system: MDAMB468; settings: Homo sapiens, MDA-MB-468, 72 h, MDAMB468 (breast)
Description: as §1, §2

[18] = test system: CALU6; settings: Homo sapiens, Calu-6; CALU6 (lung), 72 hr; Non-Responder Cell Lines with IC50 >10 uM or Not Determined
Description: as §1, §2

[19] = test system: MHHES1; settings: Homo sapiens, MHH-ES-1, 72 h
Description: as §1, §2

[20] = test system: HT1080; settings: Homo sapiens, HT-1080; HT1080 (connective tissue), 72 hr; Responder Cell Lines
Description: as §1, §2

[21] = test system: A204; settings: Homo sapiens; A204 (muscle), 72 hr; Responder Cell Lines
Description: as §1, §2

[22] = test system: SKNSH; settings: Homo sapiens, SK-N-SH, 72 h, SKNSH (brain)
Description: as §1, §2

[23] = test system: SKMEL5; settings: Homo sapiens, SK-MEL-5, 72 h, SKMEL5 (skin)
Description: as §1, §2

[24] = test system: PBMC; settings: PBMC (hematological), 72 hr; Non-Responder Cell Lines with IC50 >10 uM or Not Determined
Description: as §1, §2

[25] = Non-Responder Cell Lines with IC50 >10 uM or Not Determined

## CC(C)(O)c1cc(-c2csc(-c3ccc(C(=O)N4CCC(O)CC4)cc3Cl)c2)ccn1 [Compound 1, (3-chloro-4-(4-(2-(2-hydroxypropan-2-yl)pyridin-4-yl)thiophen-2-yl)phenyl)(4-hydroxypiperidin-1-yl)methanone]
[1]; [25]
  IC50: > 10 µM
[1]; Responder Cell Lines
  IC50: < 10 µM
[2]; [25]
  IC50: > 10 µM
[2]; Responder Cell Lines
  IC50: < 10 µM
[3]
  IC50: < 10 µM
[4]
  IC50: > 10 µM
[5]
  IC50: > 10 µM
[6]
  IC50: < 10 µM
[7]
  IC50: < 10 µM
[8]
  IC50: > 10 µM
[9]
  IC50: < 10 µM
[10]
  IC50: > 10 µM
[11]
  IC50: < 10 µM
[12]; [25]
  IC50: > 10 µM
[12]; Responder Cell Lines
  IC50: < 10 µM
[13]
  IC50: > 10 µM
[14]
  IC50: < 10 µM
[15]
  IC50: > 10 µM
[16]
  IC50: < 10 µM
[17]; [25]
  IC50: > 10 µM
[17]; Responder Cell Lines
  IC50: < 10 µM
[18]
  IC50: > 10 µM
[19]; MHHES1 (bone), Non-Responder Cell Lines with IC50 >10 uM or Not Determined
  IC50: > 10 µM
[19]; MHHESI (bone), Responder Cell Lines
  IC50: < 10 µM
[20]
  IC50: < 10 µM
[21]
  IC50: < 10 µM
[22]; [25]
  IC50: > 10 µM
[22]; Responder Cell Lines
  IC50: < 10 µM
[23]; [25]
  IC50: > 10 µM
[23]; Responder Cell Lines
  IC50: < 10 µM
[24]
  IC50: > 10 µM
